# Patent US20230114728A1 (Venatorx Pharmaceuticals, Inc., priority 2019, published 2023)
# Key:
# [1] = molecular target: T1, E. coli K12 PBP3 (Escherichia coli, UniProt P0AD68); experiment: biochemical; format: binding
# T1 construct: made in house
# In short: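 Fluorescence polarization (ex 490/em 520 nm) competition of inhibitors against Bocillin-FL at 0.1 μM, read up to 60 min. Final PBP levels: E. coli PBP3 1.5 μM; A. baumannii PBP2 2.5 μM, PBP3 0.2 μM in Tris pH 8.0/NaCl/glycerol/Tween 20; N. gonorrhoeae PBP2 […] in Hepes pH 8.0/NaCl/glycerol. EC50 = concentration halving PBP-bound Bocillin-FL.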
# [2] = molecular target: T2, P. aeruginosa PBP3 (Pseudomonas aeruginosa, UniProt G3XD46); experiment: Bocillin-FL fluorescence polarization competition binding assay, P. aeruginosa PBP3; details: fluorescence polarization competition binding assay using Bocillin-FL
# T2 construct: made in house
# In short: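 Binding of boronic acid inhibitors to purified Pseudomonas aeruginosa (PA01) PBP3 was measured by fluorescence polarization competition with Bocillin-FL, a fluorescent penicillin V. Reactions of 80 μl contained 0.75 μM PBP3 and 0.1 μM Bocillin-FL in 50 mM Hepes (pH 8.0), 300 mM NaCl and 5% (v/v) glycerol, in black 384-well plates. FP (Excitation 490 nm, Emission 520 nm) was read for up to 60 minutes. EC50 is the concentration that halves PBP-bound Bocillin-FL.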
# [3] = tested on: P. aeruginosa ATCC 27853; experiment: Broth microdilution MIC in CAMHB; format: cell-based; details: Pseudomonas aeruginosa, ATCC27853; MHB; read-out: Minimum Inhibitory Concentration, P. aeruginosa ATCC 27853
# In short: (§1)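 CLSI broth microdilution in CAMHB: 2-fold compound dilutions inoculated at 2-8×10^5 CFU/mL from 3-5 h log-phase cultures. Incubated at 37 °C for 16-20 h (Enterobacteriaceae, Pseudomonas); MIC read visually as lowest concentration without growth. Strains include hyper-permeable and efflux-deficient mutants.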
# [4] = tested on: E. coli 901C; experiment: Broth microdilution MIC in CAMHB; format: cell-based; details: Escherichia coli; E. coli 901C (hyper-permeable); MHB; read-out: Minimum Inhibitory Concentration, E. coli 901C
# In short: as §1
# [5] = tested on: E. coli ATCC 25922; experiment: Broth microdilution MIC in CAMHB; format: cell-based; details: Escherichia coli, ATCC25922; E. coli ATCC 25922; MHB; read-out: Minimum Inhibitory Concentration, E. coli 25922
# In short: as §1
# [6] = tested on: P. aeruginosa ATCC 35151; experiment: Broth microdilution MIC in CAMHB; format: cell-based; details: Pseudomonas aeruginosa, ATCC35151; MHB; hyper-permeable strain; read-out: Minimum Inhibitory Concentration, P. aeruginosa ATCC 35151
# In short: as §1
# [7] = tested on: K. pneumoniae UMM producing SHV-5 and KPC-2; experiment: Broth microdilution MIC in CAMHB; format: cell-based; details: Klebsiella pneumoniae, read-out: Minimum Inhibitory Concentration, K. pneumoniae UMM
# In short: as §1
# [8] = tested on: E. coli AG100; experiment: Broth microdilution MIC in CAMHB; format: cell-based; details: Escherichia coli; E. coli AG100 (wild-type parent); MHB; read-out: Minimum Inhibitory Concentration, E. coli AG100
# In short: as §1
# [9] = tested on: A. baumannii ATCC 19606; experiment: Broth microdilution MIC in CAMHB; format: cell-based; details: Acinetobacter baumannii, ATCC19606; MHB; read-out: Minimum Inhibitory Concentration, A. baumannii ATCC 19606
# In short: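 Per CLSI broth microdilution, colonies were grown 3-5 h at 37° C in cation-adjusted Mueller Hinton broth, then diluted to a starting inoculum of 2-8×10^5 CFU/mL against 2-fold serial compound dilutions. Plates were incubated 16-20 h at 37° C, and MIC was read visually as the lowest concentration with no growth.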
# T1 sequence (P0AD68 1-577): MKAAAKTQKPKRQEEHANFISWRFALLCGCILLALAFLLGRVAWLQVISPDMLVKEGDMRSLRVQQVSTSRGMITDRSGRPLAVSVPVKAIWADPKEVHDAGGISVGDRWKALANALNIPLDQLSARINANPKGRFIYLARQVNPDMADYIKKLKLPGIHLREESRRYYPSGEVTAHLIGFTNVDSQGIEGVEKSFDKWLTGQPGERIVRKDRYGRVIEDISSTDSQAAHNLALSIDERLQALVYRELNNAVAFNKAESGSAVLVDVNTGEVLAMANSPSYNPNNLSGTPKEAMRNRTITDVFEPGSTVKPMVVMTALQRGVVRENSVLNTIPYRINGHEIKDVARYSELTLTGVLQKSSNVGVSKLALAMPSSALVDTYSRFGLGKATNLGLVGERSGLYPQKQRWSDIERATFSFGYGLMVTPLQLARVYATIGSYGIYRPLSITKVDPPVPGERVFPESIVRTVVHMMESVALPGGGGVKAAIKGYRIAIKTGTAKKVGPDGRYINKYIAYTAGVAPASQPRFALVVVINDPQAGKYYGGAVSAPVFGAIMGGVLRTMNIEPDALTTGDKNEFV
# T2 sequence (G3XD46 whole entry): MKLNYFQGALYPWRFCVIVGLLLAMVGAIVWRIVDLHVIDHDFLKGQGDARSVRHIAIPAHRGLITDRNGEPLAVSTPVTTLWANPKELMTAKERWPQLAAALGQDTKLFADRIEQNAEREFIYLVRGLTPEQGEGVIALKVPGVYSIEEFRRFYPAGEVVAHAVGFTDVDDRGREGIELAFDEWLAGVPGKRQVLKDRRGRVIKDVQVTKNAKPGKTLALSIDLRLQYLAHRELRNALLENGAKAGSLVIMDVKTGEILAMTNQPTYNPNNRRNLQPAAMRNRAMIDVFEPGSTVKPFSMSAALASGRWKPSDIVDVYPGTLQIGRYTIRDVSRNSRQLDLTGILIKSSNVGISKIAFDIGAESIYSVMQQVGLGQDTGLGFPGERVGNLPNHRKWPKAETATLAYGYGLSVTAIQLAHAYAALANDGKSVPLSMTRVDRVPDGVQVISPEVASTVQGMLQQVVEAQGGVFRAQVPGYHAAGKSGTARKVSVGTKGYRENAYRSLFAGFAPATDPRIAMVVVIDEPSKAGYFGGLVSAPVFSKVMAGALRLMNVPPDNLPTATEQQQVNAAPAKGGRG
structure (smiles),measurement,setting,value
"CCN1CCN(C(=O)N[C@H](C(=O)N[C@H]2Cc3cccc(C(=O)O)c3OB2O)c2ccc(C(=O)O)c(F)c2Cl)C(=O)C1=O (single isomer, unassigned) [Example 202]",EC50,[1],30 to 500 µM
same,P. aeruginosa PBP3 Potency,[2],C (C represents a potency between 10 and 30 μM)
same,MIC,[3],> 128 µg/mL
same,MIC,[4],0.5 to 1 µg/mL
same,MIC,[5],> 128 µg/mL
same,MIC,[6],2 to 4 µg/mL
same,MIC,[7],> 128 µg/mL
same,MIC,[8],> 128 µg/mL
same,MIC,[9],> 128 µg/mL
"NCCN1CCN(C(=O)N[C@H](C(=O)N[C@H]2Cc3cccc(C(=O)O)c3OB2O)c2c(F)cccc2F)C(=O)C1=O (single isomer, unassigned) [Example 204]",EC50,[1],> 500 µM
same,P. aeruginosa PBP3 Potency,[2],B (B represents a potency between 30 μM and 500 μM inclusive)
same,MIC,[3],> 128 µg/mL
same,MIC,[4],8 to 16 µg/mL
same,MIC,[5],> 128 µg/mL
same,MIC,[6],32 to 64 µg/mL
same,MIC,[7],> 128 µg/mL
same,MIC,[8],> 128 µg/mL
same,MIC,[9],> 128 µg/mL
"NS(=O)(=O)Nc1ccc(F)c(C(NC(=O)N2CCN(CCF)C(=O)C2=O)C(=O)N[C@H]2Cc3cccc(C(=O)O)c3OB2O)c1 (stereo partly drawn) [Example 198, (3R)-3-(2-(2-fluoro-5-(sulfamoylamino)phenyl)-2-(4-(2-fluoroethyl)-2,3-dioxopiperazine-1-carboxamido)acetamido)-2-hydroxy-3,4-dihydro-2H-benzo[e][1,2]oxaborinine-8-carboxylic acid]",EC50,[1],< 30 µM
same,P. aeruginosa PBP3 Potency,[2],D (D represents a potency <10 μM)
same,MIC,[3],> 128 µg/mL
same,MIC,[4],< 0.25 µg/mL
same,MIC,[5],8 to 16 µg/mL
same,MIC,[6],0.5 to 1 µg/mL
same,MIC,[7],32 to 64 µg/mL
same,MIC,[8],8 to 16 µg/mL
same,MIC,[9],> 128 µg/mL
"CCN1CCN(C(=O)NC(C(=O)N[C@H]2Cc3cccc(C(=O)O)c3OB2O)c2ccc(C(=O)O)c(Cl)c2Cl)C(=O)C1=O (stereo partly drawn) [Example 201, (3R)-3-(2-(4-carboxy-2,3-dichlorophenyl)-2-(4-ethyl-2,3-dioxopiperazine-1-carboxamido)acetamido)-2-hydroxy-3,4-dihydro-2H-benzo[e][1,2]oxaborinine-8-carboxylic acid]",EC50,[1],< 30 µM
same,P. aeruginosa PBP3 Potency,[2],D (D represents a potency <10 μM)
same,MIC,[3],> 128 µg/mL
same,MIC,[4],0.5 to 1 µg/mL
same,MIC,[5],> 128 µg/mL
same,MIC,[6],0.5 to 1 µg/mL
same,MIC,[7],> 128 µg/mL
same,MIC,[8],> 128 µg/mL
same,MIC,[9],> 128 µg/mL
"CCN1CCN(C(=O)NC(C(=O)N[C@H]2Cc3cccc(C(=O)O)c3OB2O)c2cc([N+](=O)[O-])c(O)cc2F)C(=O)C1=O (stereo partly drawn) [Example 184, (3R)-3-(2-(4-ethyl-2,3-dioxopiperazine-1-carboxamido)-2-(2-fluoro-4-hydroxy-5-nitrophenyl)acetamido)-2-hydroxy-3,4-dihydro-2H-benzo[e][1,2]oxaborinine-8-carboxylic acid]",EC50,[1],< 30 µM
same,P. aeruginosa PBP3 Potency,[2],D (D represents a potency <10 μM)
same,MIC,[3],> 128 µg/mL
same,MIC,[4],< 0.25 µg/mL
same,MIC,[5],32 to 64 µg/mL
same,MIC,[6],0.5 to 1 µg/mL
same,MIC,[7],32 to 64 µg/mL
same,MIC,[8],32 to 64 µg/mL
same,MIC,[9],> 128 µg/mL
"CCN1CCN(C(=O)N[C@@H](C(=O)N[C@H]2Cc3cccc(C(=O)O)c3OB2O)c2ccc(C(=O)O)c(F)c2Cl)C(=O)C1=O (single isomer, unassigned) [Example 203]",EC50,[1],< 30 µM
same,P. aeruginosa PBP3 Potency,[2],D (D represents a potency <10 μM)
same,MIC,[3],> 128 µg/mL
same,MIC,[4],< 0.25 µg/mL
same,MIC,[5],> 128 µg/mL
same,MIC,[6],0.5 to 1 µg/mL
same,MIC,[7],32 to 64 µg/mL
same,MIC,[8],32 to 64 µg/mL
same,MIC,[9],> 128 µg/mL
"NCCN1CCN(C(=O)N[C@H](C(=O)N[C@H]2Cc3cccc(C(=O)O)c3OB2O)c2c(F)cccc2Cl)C(=O)C1=O (single isomer, unassigned) [Example 206]",EC50,[1],> 500 µM
same,P. aeruginosa PBP3 Potency,[2],B (B represents a potency between 30 μM and 500 μM inclusive)
same,MIC,[3],> 128 µg/mL
same,MIC,[4],32 to 64 µg/mL
same,MIC,[5],> 128 µg/mL
same,MIC,[6],32 to 64 µg/mL
same,MIC,[7],> 128 µg/mL
same,MIC,[8],> 128 µg/mL
same,MIC,[9],> 128 µg/mL
"NCCN1CCN(C(=O)N[C@@H](C(=O)N[C@H]2Cc3cccc(C(=O)O)c3OB2O)c2ccc(O)c(Cl)c2F)C(=O)C1=O (single isomer, unassigned) [Example 186]",EC50,[1],< 30 µM
same,P. aeruginosa PBP3 Potency,[2],D (D represents a potency <10 μM)
same,MIC,[3],32 to 64 µg/mL
same,MIC,[4],0.5 to 1 µg/mL
same,MIC,[5],8 to 16 µg/mL
same,MIC,[6],< 0.25 µg/mL
same,MIC,[7],32 to 64 µg/mL
same,MIC,[8],8 to 16 µg/mL
same,MIC,[9],> 128 µg/mL
"NCCCN1CCN(C(=O)NC(C(=O)N[C@H]2Cc3cccc(C(=O)O)c3OB2O)c2c(F)cc(O)cc2F)C(=O)C1=O (stereo partly drawn) [Example 183, (3R)-3-(2-(4-(3-aminopropyl)-2,3-dioxopiperazine-1-carboxamido)-2-(2,6-difluoro-4-hydroxyphenyl)acetamido)-2-hydroxy-3,4-dihydro-2H-benzo[e][1,2]oxaborinine-8-carboxylic acid]",EC50,[1],< 30 µM
same,P. aeruginosa PBP3 Potency,[2],D (D represents a potency <10 μM)
same,MIC,[3],> 128 µg/mL
same,MIC,[4],0.5 to 1 µg/mL
same,MIC,[5],8 to 16 µg/mL
same,MIC,[6],2 to 4 µg/mL
same,MIC,[7],8 to 16 µg/mL
same,MIC,[8],8 to 16 µg/mL
same,MIC,[9],> 128 µg/mL
"O=C(O)c1cccc2c1OB(O)[C@@H](NC(=O)C(NC(=O)N1CCN(CC3CNC3)C(=O)C1=O)c1c(F)cc(O)cc1F)C2 (stereo partly drawn) [Example 193, (3R)-3-(2-(4-(azetidin-3-ylmethyl)-2,3-dioxopiperazine-1-carboxamido)-2-(2,6-difluoro-4-hydroxyphenyl)acetamido)-2-hydroxy-3,4-dihydro-2H-benzo[e][1,2]oxaborinine-8-carboxylic acid]",EC50,[1],< 30 µM
same,P. aeruginosa PBP3 Potency,[2],D (D represents a potency <10 μM)
same,MIC,[3],> 128 µg/mL
same,MIC,[4],0.5 to 1 µg/mL
same,MIC,[5],8 to 16 µg/mL
same,MIC,[6],0.5 to 1 µg/mL
same,MIC,[7],8 to 16 µg/mL
same,MIC,[8],8 to 16 µg/mL
same,MIC,[9],> 128 µg/mL
"NCCN1CCN(C(=O)N[C@H](C(=O)N[C@H]2Cc3cccc(C(=O)O)c3OB2O)c2ccc(O)c([N+](=O)[O-])c2)C(=O)C1=O (single isomer, unassigned) [Example 200]",EC50,[1],> 500 µM
same,P. aeruginosa PBP3 Potency,[2],C (C represents a potency between 10 and 30 μM)
same,MIC,[3],> 128 µg/mL
same,MIC,[4],8 to 16 µg/mL
same,MIC,[5],> 128 µg/mL
same,MIC,[6],2 to 4 µg/mL
same,MIC,[7],> 128 µg/mL
same,MIC,[8],> 128 µg/mL
same,MIC,[9],> 128 µg/mL
